From US12679878B2, “CRF2 receptor agonists and their use in therapy” (SANOFI, priority 2020, dated 2026)
Values after ≈ are worked out from the molar mass of the structure shown. Starred links: 1 amine or outer side, 2 acyl side, 3 side chain; linkers in the order of their positions; H or OH if unused. Non-standard residues stand in square brackets, D forms with d. Residues, ends and D or L forms follow the SMILES beside them. Groups on a side chain read outwards from the residue. *: point of attachment. γGlu = O=C(O)[C@H](CCC(=O)[*:2])N[*:1]; Palmitoyl = CCCCCCCCCCCCCCCC(=O)*; Aib = CC(C)(N)C(=O)O

Assays:
CRF1R receptor = target: T1, CRF1R receptor (Homo sapiens, UniProt P34998); experiment: cAMP activity at anti-target CRF1R, CRF1R-overexpression CHO cell line (Example 9); type: cell-based; conditions: CRF1R-overexpression CHO cell line; for EC50: 0% HSA; for Emax: read-out: Emax (%)
T1 construct: host or cells: CHO-K1 clone 2
T1 sequence (P34998 24-415): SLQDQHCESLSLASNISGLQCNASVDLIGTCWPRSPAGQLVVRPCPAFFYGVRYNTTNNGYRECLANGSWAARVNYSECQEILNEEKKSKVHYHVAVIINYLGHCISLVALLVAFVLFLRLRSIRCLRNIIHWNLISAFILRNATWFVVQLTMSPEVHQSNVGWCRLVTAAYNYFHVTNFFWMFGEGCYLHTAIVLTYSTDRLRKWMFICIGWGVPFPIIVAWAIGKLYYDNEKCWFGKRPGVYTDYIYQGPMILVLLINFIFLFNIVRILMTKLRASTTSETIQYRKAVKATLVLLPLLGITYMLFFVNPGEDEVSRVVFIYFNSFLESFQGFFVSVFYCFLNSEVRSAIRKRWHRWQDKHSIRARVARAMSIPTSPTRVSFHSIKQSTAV
Method in brief: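 cAMP accumulation was read by HTRF after 30 min at room temperature of compound treatment. Cells were cryopreserved CHO cells overexpressing CRF1R, plated at 2000/well in IBMX (2 mM)-containing HBSS/HEPES buffer with 0 or 0.1% HSA. Activity was normalized to 1000 nM UCN2 as 100%.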

[1] = Solubility in buffer systems by UPLC-UV (Example 13); type: physicochemical
Method: Prior to performing the solubility measurements, the purity of the compounds was determined through UPLC/MS. […] Therefore, solutions from solid samples were prepared in a buffer system with a concentration of 10 mg/mL compound based on the previously determined % purity.
UPLC-UV was performed after 1 hour of gentle agitation from the supernatant, which was obtained after 15 minutes of centrifugation at 2500 RCF (relative centrifugal acceleration). The solubility was determined by the comparison of the UV peak area of a 2 μL-injection of a buffered sample diluted 1:10 with a standard curve of a reference compound with known concentration. The different UV extinction coefficients of sample and reference compound were calculated based on the different amino acid sequences and considered in the concentration calculation.

human CRF2α receptor = target: T2, human CRF2α receptor (Homo sapiens, UniProt Q13324); experiment: cAMP agonism at human CRF2 α receptor in TeloHEAC cells (Example 7); type: cell-based; conditions: cAMP HTRF, TeloHEAC cells stably expressing human CRF2 α, 0% HSA; read-out: EC50 [nM], 0% HSA
T2 construct: expressed in transfected cells; host or cells: TeloHEAC
T2 sequence (Q13324 1-411): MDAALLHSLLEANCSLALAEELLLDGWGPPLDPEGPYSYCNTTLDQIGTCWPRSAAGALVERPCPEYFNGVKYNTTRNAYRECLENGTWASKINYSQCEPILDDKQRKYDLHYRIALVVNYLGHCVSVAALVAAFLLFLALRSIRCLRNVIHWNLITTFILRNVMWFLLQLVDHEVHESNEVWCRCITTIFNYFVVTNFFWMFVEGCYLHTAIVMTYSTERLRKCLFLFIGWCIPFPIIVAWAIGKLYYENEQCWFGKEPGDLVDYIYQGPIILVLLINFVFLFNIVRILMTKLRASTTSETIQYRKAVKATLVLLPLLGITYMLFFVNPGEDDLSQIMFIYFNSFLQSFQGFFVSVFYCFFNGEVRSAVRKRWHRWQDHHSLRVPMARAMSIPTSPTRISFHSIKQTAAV
Method in brief: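 Cryopreserved cells are thawed, washed and resuspended in IBMX-containing (2 mM) HEPES-buffered HBSS with or without 0.1% HSA. Compound incubation runs 30 min at room temperature with 2000 cells per well, then cAMP is measured by time-resolved FRET. Potency is expressed as EC50, efficacy relative to urocortin 2 at 1000 nM.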

[2] = pH 7.4, Solubility in Buffer C [mg/ml]
[3] = pH 4.5, Solubility in Buffer A [mg/ml]
[4] = pH 4.5, Solubility in Buffer B [mg/ml]

| EC50 (CRF1R receptor) | Emax (CRF1R receptor) | solubility at 1 h [1, 2] | EC50 (human CRF2α receptor) | solubility at 1 h [1, 3] | solubility at 1 h [1, 4] | SMILES |
| --- | --- | --- | --- | --- | --- | --- |
|  | 57.4% | 5700 µg/mL (≈ 1150 µM) | 0.01 nM | > 10200 µg/mL | > 10800 µg/mL | CCCCCCCCCCCCCCCC(=O)N[C@@H](CCC(=O)NCCCC[C@H](NC(=O)[C@H](CC(C)C)NC(=O)[C@H](CCCCN)NC(=O)[C@@H](NC(=O)[C@@H]1CCCN1C(=O)[C@H](NC(=O)[C@H](CC(=O)O)NC(=O)[C@H](CC(C)C)NC(=O)[C@H](CO)NC(=O)[C@H](CC(C)C)NC(=O)[C@@H](NC(=O)[C@@H](N)[C@@H](C)CC)C(C)C)C(C)C)[C@@H](C)O)C(=O)N[C@@H](CCC(N)=O)C(=O)N[C@@H](CCCCN)C(=O)N[C@@H](CC(C)C)C(=O)N[C@@H](CC(C)C)C(=O)N[C@@H](CCCCN)C(=O)N[C@@H](CCC(N)=O)C(=O)N[C@@H](CCC(=O)O)C(=O)N[C@@H](CCCNC(=N)N)C(=O)N[C@@H](CCC(N)=O)C(=O)N[C@@H](CCCNC(=N)N)C(=O)NC(C)(C)C(=O)N[C@@H](CCC(=O)O)C(=O)N[C@@H](CCCNC(=N)N)C(=O)N[C@@H](CCC(=O)O)C(=O)N[C@@H](CCC(N)=O)C(=O)N[C@@H](C)C(=O)N[C@@H](CCC(=O)O)C(=O)N[C@@H](CCCCN)C(=O)N[C@@H](CC(N)=O)C(=O)N[C@@H](CCCCN)C(=O)N[C@@H](CCCNC(=N)N)C(=O)N[C@H](C(=O)N[C@@H](CC(C)C)C(=O)N[C@@H](CCC(=O)O)C(=O)N[C@@H](CCCNC(=N)N)C(=O)N[C@H](C(N)=O)C(C)C)[C@@H](C)CC)C(=O)O [compound 19] (H-IVLSLD[dV]PTKLK([γGlu-Palmitoyl])QKLLKQERQR[Aib]EREQAEKNKRILERV-NH2; N-terminus assumed) |
|  |  | 6800 µg/mL (≈ 1370 µM) | 0.01 nM | > 9500 µg/mL | > 9100 µg/mL | CCCCCCCCCCCCCCCC(=O)N[C@@H](CCC(=O)NCCCC[C@H](NC(=O)[C@H](CC(C)C)NC(=O)[C@H](CCCCN)NC(=O)[C@@H](NC(=O)[C@@H]1CCCN1C(=O)[C@H](NC(=O)[C@H](CC(=O)O)NC(=O)[C@H](CC(C)C)NC(=O)[C@H](CO)NC(=O)[C@H](CC(C)C)NC(=O)[C@@H](NC(=O)[C@@H](N)[C@@H](C)CC)C(C)C)C(C)C)[C@@H](C)O)C(=O)N[C@@H](CCC(N)=O)C(=O)N[C@@H](CCCCN)C(=O)N[C@@H](CC(C)C)C(=O)N[C@@H](CC(C)C)C(=O)N[C@@H](CCCCN)C(=O)N[C@@H](CCC(N)=O)C(=O)N[C@@H](CCC(=O)O)C(=O)N[C@@H](CCCNC(=N)N)C(=O)N[C@@H](CCC(N)=O)C(=O)N[C@@H](CCCNC(=N)N)C(=O)N[C@@H](CCCCN)C(=O)NC(C)(C)C(=O)N[C@@H](CCCNC(=N)N)C(=O)N[C@@H](CCC(=O)O)C(=O)N[C@@H](CCC(N)=O)C(=O)N[C@@H](C)C(=O)N[C@@H](CCC(=O)O)C(=O)N[C@@H](CCCCN)C(=O)N[C@@H](CC(N)=O)C(=O)N[C@@H](CCCCN)C(=O)N[C@@H](CCCNC(=N)N)C(=O)N[C@H](C(=O)N[C@@H](CC(C)C)C(=O)N[C@@H](CCC(=O)O)C(=O)N[C@@H](CCCNC(=N)N)C(=O)N[C@H](C(N)=O)C(C)C)[C@@H](C)CC)C(=O)O [compound 20] (H-IVLSLD[dV]PTKLK([γGlu-Palmitoyl])QKLLKQERQRK[Aib]REQAEKNKRILERV-NH2; N-terminus assumed) |
|  |  | 9100 µg/mL (≈ 1830 µM) | 0.02 nM |  |  | CCCCCCCCCCCCCCCC(=O)N[C@@H](CCC(=O)NCCCC[C@H](NC(=O)[C@H](CC(C)C)NC(=O)[C@H](CCCCN)NC(=O)[C@@H](NC(=O)[C@@H]1CCCN1C(=O)[C@H](NC(=O)[C@H](CC(=O)O)NC(=O)[C@H](CC(C)C)NC(=O)[C@H](CO)NC(=O)[C@H](CC(C)C)NC(=O)[C@@H](NC(=O)[C@@H](N)[C@@H](C)CC)C(C)C)C(C)C)[C@@H](C)O)C(=O)N[C@@H](CCC(N)=O)C(=O)N[C@@H](CCCCN)C(=O)N[C@@H](CC(C)C)C(=O)N[C@@H](CC(C)C)C(=O)N[C@@H](CCCCN)C(=O)N[C@@H](CCC(N)=O)C(=O)N[C@@H](CCC(=O)O)C(=O)N[C@@H](CCCNC(=N)N)C(=O)N[C@@H](CCC(N)=O)C(=O)N[C@@H](CCCNC(=N)N)C(=O)N[C@@H](CCCCN)C(=O)N[C@@H](CCC(=O)O)C(=O)N[C@@H](CCCNC(=N)N)C(=O)NC(C)(C)C(=O)N[C@@H](CCC(N)=O)C(=O)N[C@@H](C)C(=O)N[C@@H](CCC(=O)O)C(=O)N[C@@H](CCCCN)C(=O)N[C@@H](CC(N)=O)C(=O)N[C@@H](CCCCN)C(=O)N[C@@H](CCCNC(=N)N)C(=O)N[C@H](C(=O)N[C@@H](CC(C)C)C(=O)N[C@@H](CCC(=O)O)C(=O)N[C@@H](CCCNC(=N)N)C(=O)N[C@H](C(N)=O)C(C)C)[C@@H](C)CC)C(=O)O [compound 23] (H-IVLSLD[dV]PTKLK([γGlu-Palmitoyl])QKLLKQERQRKER[Aib]QAEKNKRILERV-NH2; N-terminus assumed) |

The next lines start with the molecule.

| SMILES | EC50 (CRF1R receptor) | Emax (CRF1R receptor) | solubility at 1 h [1, 2] | EC50 (human CRF2α receptor) | solubility at 1 h [1, 3] | solubility at 1 h [1, 4] |
| --- | --- | --- | --- | --- | --- | --- |
| CCCCCCCCCCCCCCCC(=O)N[C@@H](CCC(=O)NCCCC[C@H](NC(=O)[C@@H](NC(=O)[C@H](CCCCN)NC(=O)[C@@H](NC(=O)[C@@H]1CCCN1C(=O)[C@@H](NC(=O)[C@H](CC(=O)O)NC(=O)[C@H](CC(C)C)NC(=O)[C@H](CO)NC(=O)[C@H](CC(C)C)NC(=O)[C@@H](NC(=O)[C@@H](N)Cc1ccccc1)[C@@H](C)O)C(C)C)[C@@H](C)O)[C@@H](C)CC)C(=O)N[C@@H](CCC(N)=O)C(=O)N[C@@H](CCCCN)C(=O)N[C@@H](CC(C)C)C(=O)N[C@@H](CC(C)C)C(=O)N[C@@H](CCCCN)C(=O)N[C@@H](CCC(N)=O)C(=O)N[C@@H](CCC(=O)O)C(=O)N[C@@H](CCCCN)C(=O)N[C@@H](CCC(N)=O)C(=O)N[C@@H](CCCCN)C(=O)N[C@@H](CCCCN)C(=O)N[C@@H](CCC(N)=O)C(=O)N[C@@H](CCCNC(=N)N)C(=O)N[C@@H](CCC(N)=O)C(=O)N[C@@H](CCCCN)C(=O)N[C@@H](C)C(=O)N[C@@H](CCCCN)C(=O)N[C@H](C(=O)N[C@@H](CC(N)=O)C(=O)N[C@@H](CCCCN)C(=O)N[C@@H](CCC(N)=O)C(=O)N[C@H](C(=O)N[C@@H](CC(C)C)C(=O)N[C@@H](CCC(=O)O)C(=O)N[C@@H](CCC(N)=O)C(=O)N[C@H](C(N)=O)C(C)C)[C@@H](C)CC)[C@@H](C)O)C(=O)O [compound 10] (H-FTLSLDVPTKIK([γGlu-Palmitoyl])QKLLKQEKQKKQRQKAKTNKQILEQV-NH2) | > 1000 nM | 10.2% | > 10000 µg/mL |  |  |  |
| CCCCCCCCCCCCCCCC(=O)N[C@@H](CCC(=O)NCCCC[C@H](NC(=O)[C@@H](NC(=O)[C@H](CCCCN)NC(=O)[C@@H](NC(=O)[C@@H]1CCCN1C(=O)[C@@H](NC(=O)[C@H](CC(=O)O)NC(=O)[C@H](CC(C)C)NC(=O)[C@H](CO)NC(=O)[C@H](CC(C)C)NC(=O)[C@@H](NC(=O)[C@@H](N)Cc1ccccc1)[C@@H](C)O)C(C)C)[C@@H](C)O)[C@@H](C)CC)C(=O)N[C@@H](CCC(N)=O)C(=O)N[C@@H](CCCCN)C(=O)N[C@@H](CC(C)C)C(=O)N[C@@H](CC(C)C)C(=O)N[C@@H](CCCCN)C(=O)N[C@@H](CCC(N)=O)C(=O)N[C@@H](CCC(=O)O)C(=O)N[C@@H](CCCCN)C(=O)N[C@@H](CCC(N)=O)C(=O)N[C@@H](CCCNC(=N)N)C(=O)N[C@@H](CCCCN)C(=O)N[C@@H](CCC(N)=O)C(=O)N[C@@H](CCCCN)C(=O)N[C@@H](CCC(N)=O)C(=O)N[C@@H](CCCCN)C(=O)N[C@@H](C)C(=O)N[C@@H](CCCCN)C(=O)N[C@H](C(=O)N[C@@H](CC(N)=O)C(=O)N[C@@H](C)C(=O)N[C@@H](CCCCN)C(=O)N[C@H](C(=O)N[C@@H](CC(C)C)C(=O)N[C@@H](C)C(=O)N[C@@H](CCCNC(=N)N)C(=O)N[C@H](C(N)=O)C(C)C)[C@@H](C)CC)[C@@H](C)O)C(=O)O [compound 14] (H-FTLSLDVPTKIK([γGlu-Palmitoyl])QKLLKQEKQRKQKQKAKTNAKILARV-NH2; N-terminus assumed) | > 1000 nM | 14.1% | > 8700 µg/mL | 0.18 nM | > 9100 µg/mL |  |
